≈ marks a conversion by molar mass, not a printed value.

Data on three compounds can be found in paper PMC10715191, “Exploration of the novel fluoroquinolones with high inhibitory effect against quinolone-resistant DNA gyrase of Salmonella Typhimurium” (Microbiology Spectrum, 2023).

Experiment [1] addresses T1, WT S. Typhimurium DNA gyrase (Salmonella typhimurium, UniProt P0A2I3+P37411).
T1 construct: made in house; host or cells: Escherichia coli BL21(DE3)
Description: Fluoroquinolone-inhibited DNA supercoiling assay, WT DNA gyrase. It is filed as biochemical. The following applies: read-out: IC50s ± SD, WT (converted). From the text: (§1) Recombinant DNA gyrase was obtained as separate subunits, GyrA and GyrB. In total, plasmids encoding nine subunits including WT GyrA and GyrB as well as seven GyrA with amino acid substitutions (Ser83Phe, Ser83Ile, Ser83Tyr, Asp87Gly, Asp87Asn, Asp87Tyr, and […]) in the quinolone resistance determining region were constructed as described in our previous study ([38]). These plasmids were introduced into Escherichia coli BL21(DE3) (Merck KGaA, Darmstadt, Germany), and protein expression was induced in the bacterial cells. A transformed E. coli was inoculated into Luria-Bertani broth supplemented with ampicillin (50 mg/L) and incubated at 37°C until the optical density value reached 0.60. Expression of GyrA and GyrB was induced by adding 1 mM isopropyl beta-D-1-thiogalactopyranoside (Wako Pure Chemical Industries Ltd, Osaka, Japan) followed by incubation at 16°C for 40 h (for GyrA), or 18°C for 13 h (for GyrB). To release the expressed protein, E. coli cells were harvested by centrifugation, suspended in a native binding buffer containing complete mini EDTA-free (Roche Applied Science, Mannheim, Germany), and then sonicated at a 30% duty cycle with 10 cycles of 40 s on and 40 s off (Sonifier 250; Branson, Danbury, CT). The recombinant DNA gyrase subunits were purified by column chromatography using Ni-NTA agarose resin (Thermo Fisher Scientific, Inc., Waltham, MA) and dialyzed against DNA gyrase dilution buffer [50 mM Tris-HCl, pH 7.5; 100 mM KCl, 2 mM dithiothreitol (DTT), 1 mM EDTA]. […] The protein purity was assessed by sodium dodecyl sulfate-polyacrylamide gel electrophoresis (SDS-PAGE) (ATTO, Tokyo, Japan) as shown in Fig. 7.
(§2) The reaction mixture was incubated at 37°C for 60 min and then the reaction was halted by adding 8 µL of stop solution (5% SDS, 25% glycerol, and 0.25 mg/mL of bromophenol blue) ([45]). […] The amount of supercoiled DNA was quantified by its intensity using ImageJ, the digital image processing software (https://imagej.nih.gov/ij/download.html).

The target in experiment [2] is T2, Ser83Phe-Asp87Asn double-mutant S. Typhimurium DNA gyrase (Salmonella typhimurium, UniProt P0A2I3+P37411, D87N/S83F).
T2 construct: made in house; host or cells: Escherichia coli BL21(DE3)
Description: Fluoroquinolone-inhibited DNA supercoiling assay, GyrA Ser83Phe-Asp87Asn DNA gyrase. The following applies: for IC50 against double-mutant DNA gyrase relative to WT: ratio IC50 double mutant / WT; for IC50: supercoiling assay, GyrA double mutant Ser83Phe-Asp87Asn, read-out: IC50s ± SD, Ser83Phe-Asp87Asn (converted). It is filed as biochemical. The text has this:
Recombinant DNA gyrase was obtained as separate subunits, GyrA and GyrB. In total, plasmids encoding nine subunits including WT GyrA and GyrB as well as seven GyrA with amino acid substitutions (Ser83Phe, Ser83Ile, Ser83Tyr, Asp87Gly, Asp87Asn, Asp87Tyr, and […]) in the quinolone resistance determining region were constructed as described in our previous study ([38]). These plasmids were introduced into Escherichia coli BL21(DE3) (Merck KGaA, Darmstadt, Germany), and protein expression was induced in the bacterial cells. A transformed E. coli was inoculated into Luria-Bertani broth supplemented with ampicillin (50 mg/L) and incubated at 37°C until the optical density value reached 0.60. Expression of GyrA and GyrB was induced by adding 1 mM isopropyl beta-D-1-thiogalactopyranoside (Wako Pure Chemical Industries Ltd, Osaka, Japan) followed by incubation at 16°C for 40 h (for GyrA), or 18°C for 13 h (for GyrB). To release the expressed protein, E. coli cells were harvested by centrifugation, suspended in a native binding buffer containing complete mini EDTA-free (Roche Applied Science, Mannheim, Germany), and then sonicated at a 30% duty cycle with 10 cycles of 40 s on and 40 s off (Sonifier 250; Branson, Danbury, CT). The recombinant DNA gyrase subunits were purified by column chromatography using Ni-NTA agarose resin (Thermo Fisher Scientific, Inc., Waltham, MA) and dialyzed against DNA gyrase dilution buffer [50 mM Tris-HCl, pH 7.5; 100 mM KCl, 2 mM dithiothreitol (DTT), 1 mM EDTA]. The obtained protein was mixed with glycerol to prevent denaturation and stored in small aliquots at −80°C for future use. The protein purity was assessed by sodium dodecyl sulfate-polyacrylamide gel electrophoresis (SDS-PAGE) (ATTO, Tokyo, Japan) as shown in Fig. 7.
The reaction mixture was incubated at 37°C for 60 min and then the reaction was halted by adding 8 µL of stop solution (5% SDS, 25% glycerol, and 0.25 mg/mL of bromophenol blue) ([45]). Next, 10 µL of each reaction mixture was subjected to gel electrophoresis for 80 min at 50 mA in 1.2% agarose gel in 1×Tris-acetate-EDTA (TAE) buffer. Subsequently, the gel was stained with 0.5 µg/mL of ethidium bromide for 30 min. The presence of supercoiled DNA can be easily distinguished as a separated band under the UV light. The amount of supercoiled DNA was quantified by its intensity using ImageJ, the digital image processing software (https://imagej.nih.gov/ij/download.html).

Experiment [3] deals with T1, WT S. Typhimurium DNA gyrase. In words: Fluoroquinolone-mediated DNA cleavage assay, WT DNA gyrase. It is filed as biochemical.
Source text: as §1, with “CT).” for “CT). The recombinant DNA gyrase subunits were purified by column chromatography using Ni-NTA agarose resin (Thermo Fisher Scientific, Inc., Waltham, MA) and dialyzed against DNA gyrase dilution buffer [50 mM Tris-HCl, pH 7.5; 100 mM KCl, 2 mM dithiothreitol (DTT), 1 mM EDTA].”, “7. […]” for “7.”

Experiment [4] concerns S. Enteritidis NBRC 3313. In words: microbe, parasite or virus in culture. It is filed as cell-based, Salmonella Enteritidis. The following applies: micro-broth dilution, 37°C, 16 h; for MIC: Salmonella enterica, read-out: MIC ± SD, S. Enteritidis. The protocol: (§3) A suspension containing approximately 5 × 10^5 CFU/mL of each Salmonella strain was transferred into 96-well plate containing serially diluted fluoroquinolones and incubated at 37°C for 16 h.
A general note: In broth dilution the organism is exposed to a series of concentrations in liquid medium.

In experiment [5] the target is T3, GryA-Ser83Ile S. Typhimurium DNA gyrase (Salmonella typhimurium, UniProt P0A2I3+P37411, S83I).
T3 construct: made in house; host or cells: Escherichia coli BL21(DE3)
In words: Fluoroquinolone-mediated DNA cleavage assay, GyrA Ser83Ile DNA gyrase. It is filed as biochemical.
Source text: as §1, with “CT).” for “CT). The recombinant DNA gyrase subunits were purified by column chromatography using Ni-NTA agarose resin (Thermo Fisher Scientific, Inc., Waltham, MA) and dialyzed against DNA gyrase dilution buffer [50 mM Tris-HCl, pH 7.5; 100 mM KCl, 2 mM dithiothreitol (DTT), 1 mM EDTA].”, “7. […]” for “7.”

Experiment [6] has as its system S. Typhimurium NBRC 13245. Description: microbe, parasite or virus in culture. The conditions noted are these: micro-broth dilution, 37°C, 16 h; for MIC: Salmonella enterica, read-out: MIC ± SD, S. Typhimurium. Format: cell-based, Salmonella Typhimurium. The protocol:
as §3

Experiment [7] deals with T4, Asp87Tyr mutant S. Typhimurium DNA gyrase (Salmonella typhimurium, UniProt P0A2I3+P37411, D87Y).
T4 construct: made in house; host or cells: Escherichia coli BL21(DE3)
Description: Fluoroquinolone-inhibited DNA supercoiling assay, GyrA Asp87Tyr DNA gyrase. It is filed as biochemical.
Source text: as §1, §2

Experiment [8] concerns the target T5, Asp87Asn mutant S. Typhimurium DNA gyrase (Salmonella typhimurium, UniProt P0A2I3+P37411, D87N).
T5 construct: made in house; host or cells: Escherichia coli BL21(DE3)
Description: Fluoroquinolone-inhibited DNA supercoiling assay, GyrA Asp87Asn DNA gyrase. It is filed as biochemical. The following applies: read-out: IC50s ± SD, Ap87Asn (converted).
Source text: as §1, §2

Experiment [9] addresses T6, Ser83Ile mutant S. Typhimurium DNA gyrase (Salmonella typhimurium, UniProt P0A2I3+P37411, S83I).
T6 construct: made in house; host or cells: Escherichia coli BL21(DE3)
Description: Fluoroquinolone-inhibited DNA supercoiling assay, GyrA Ser83Ile DNA gyrase. Format: biochemical. The conditions noted are these: read-out: IC50s ± SD, Ser83Ile (converted).
Source text: as §1, §2

In experiment [10] the target is T7, Ser83Phe mutant S. Typhimurium DNA gyrase (Salmonella typhimurium, UniProt P0A2I3+P37411, S83F).
T7 construct: made in house; host or cells: Escherichia coli BL21(DE3)
Description: Fluoroquinolone-inhibited DNA supercoiling assay, GyrA Ser83Phe DNA gyrase. It is filed as biochemical. The following applies: read-out: IC50s ± SD, Ser83Phe (converted).
Source text: as §1, §2

Experiment [11] concerns the target T8, Asp87Gly mutant S. Typhimurium DNA gyrase (Salmonella typhimurium, UniProt P0A2I3+P37411, D87G).
T8 construct: made in house; host or cells: Escherichia coli BL21(DE3)
In words: Fluoroquinolone-inhibited DNA supercoiling assay, GyrA Asp87Gly DNA gyrase. It is filed as biochemical.
Source text: as §1, §2

The target of experiment [12] is T9, Ser83Tyr mutant S. Typhimurium DNA gyrase (Salmonella typhimurium, UniProt P0A2I3+P37411, S83Y).
T9 construct: made in house; host or cells: Escherichia coli BL21(DE3)
In words: Fluoroquinolone-inhibited DNA supercoiling assay, GyrA Ser83Tyr DNA gyrase. The following applies: read-out: IC50s ± SD, Ser83Tyr (converted). Format: biochemical.
Source text: as §1, §2

T5 sequence (P37411 whole entry D87N, one chain of several): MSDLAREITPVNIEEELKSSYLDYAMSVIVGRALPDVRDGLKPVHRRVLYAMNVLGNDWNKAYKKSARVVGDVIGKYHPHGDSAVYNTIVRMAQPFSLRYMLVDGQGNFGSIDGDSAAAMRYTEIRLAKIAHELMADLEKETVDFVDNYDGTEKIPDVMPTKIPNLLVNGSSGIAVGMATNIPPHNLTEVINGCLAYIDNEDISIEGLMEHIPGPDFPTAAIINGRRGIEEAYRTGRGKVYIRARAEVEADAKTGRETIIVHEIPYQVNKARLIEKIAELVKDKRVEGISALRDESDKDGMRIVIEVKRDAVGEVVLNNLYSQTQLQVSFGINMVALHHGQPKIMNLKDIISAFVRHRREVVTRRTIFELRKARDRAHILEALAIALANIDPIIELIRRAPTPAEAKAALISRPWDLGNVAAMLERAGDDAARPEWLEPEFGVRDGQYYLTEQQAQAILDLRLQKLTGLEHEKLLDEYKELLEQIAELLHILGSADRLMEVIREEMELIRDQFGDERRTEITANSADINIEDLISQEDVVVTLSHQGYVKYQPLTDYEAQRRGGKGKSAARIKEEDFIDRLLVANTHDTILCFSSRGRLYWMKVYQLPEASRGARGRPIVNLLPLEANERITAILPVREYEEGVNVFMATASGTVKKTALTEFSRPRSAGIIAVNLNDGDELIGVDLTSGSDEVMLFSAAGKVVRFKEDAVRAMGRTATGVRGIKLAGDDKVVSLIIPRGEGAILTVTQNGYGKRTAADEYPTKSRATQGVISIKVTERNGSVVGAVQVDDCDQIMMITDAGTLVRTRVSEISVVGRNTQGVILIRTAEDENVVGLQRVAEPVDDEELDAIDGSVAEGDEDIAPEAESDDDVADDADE
T2 sequence (P37411 whole entry S83F/D87N, one chain of several): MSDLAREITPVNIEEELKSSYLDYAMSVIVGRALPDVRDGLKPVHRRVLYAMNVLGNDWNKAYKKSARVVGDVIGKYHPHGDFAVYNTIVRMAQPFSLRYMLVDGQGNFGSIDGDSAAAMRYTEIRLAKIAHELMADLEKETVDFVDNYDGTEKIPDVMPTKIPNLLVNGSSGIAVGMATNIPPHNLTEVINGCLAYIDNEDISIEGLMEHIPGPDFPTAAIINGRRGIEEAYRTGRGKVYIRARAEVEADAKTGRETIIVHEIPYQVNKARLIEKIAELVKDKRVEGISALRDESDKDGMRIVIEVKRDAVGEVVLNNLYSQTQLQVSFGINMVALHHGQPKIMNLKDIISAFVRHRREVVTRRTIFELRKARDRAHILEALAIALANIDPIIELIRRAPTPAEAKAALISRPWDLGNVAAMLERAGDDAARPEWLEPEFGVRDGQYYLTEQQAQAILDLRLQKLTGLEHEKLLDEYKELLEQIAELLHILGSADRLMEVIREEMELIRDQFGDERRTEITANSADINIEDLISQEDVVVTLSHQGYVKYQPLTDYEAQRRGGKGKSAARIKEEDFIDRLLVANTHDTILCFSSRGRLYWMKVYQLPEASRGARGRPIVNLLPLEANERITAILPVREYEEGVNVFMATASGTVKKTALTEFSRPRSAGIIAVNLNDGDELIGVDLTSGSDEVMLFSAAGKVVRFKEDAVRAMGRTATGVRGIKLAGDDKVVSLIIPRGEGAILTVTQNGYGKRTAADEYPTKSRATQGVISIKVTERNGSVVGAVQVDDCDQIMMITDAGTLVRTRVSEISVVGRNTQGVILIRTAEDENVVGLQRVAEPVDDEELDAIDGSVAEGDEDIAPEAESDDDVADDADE
T7 sequence (P37411 whole entry S83F, one chain of several): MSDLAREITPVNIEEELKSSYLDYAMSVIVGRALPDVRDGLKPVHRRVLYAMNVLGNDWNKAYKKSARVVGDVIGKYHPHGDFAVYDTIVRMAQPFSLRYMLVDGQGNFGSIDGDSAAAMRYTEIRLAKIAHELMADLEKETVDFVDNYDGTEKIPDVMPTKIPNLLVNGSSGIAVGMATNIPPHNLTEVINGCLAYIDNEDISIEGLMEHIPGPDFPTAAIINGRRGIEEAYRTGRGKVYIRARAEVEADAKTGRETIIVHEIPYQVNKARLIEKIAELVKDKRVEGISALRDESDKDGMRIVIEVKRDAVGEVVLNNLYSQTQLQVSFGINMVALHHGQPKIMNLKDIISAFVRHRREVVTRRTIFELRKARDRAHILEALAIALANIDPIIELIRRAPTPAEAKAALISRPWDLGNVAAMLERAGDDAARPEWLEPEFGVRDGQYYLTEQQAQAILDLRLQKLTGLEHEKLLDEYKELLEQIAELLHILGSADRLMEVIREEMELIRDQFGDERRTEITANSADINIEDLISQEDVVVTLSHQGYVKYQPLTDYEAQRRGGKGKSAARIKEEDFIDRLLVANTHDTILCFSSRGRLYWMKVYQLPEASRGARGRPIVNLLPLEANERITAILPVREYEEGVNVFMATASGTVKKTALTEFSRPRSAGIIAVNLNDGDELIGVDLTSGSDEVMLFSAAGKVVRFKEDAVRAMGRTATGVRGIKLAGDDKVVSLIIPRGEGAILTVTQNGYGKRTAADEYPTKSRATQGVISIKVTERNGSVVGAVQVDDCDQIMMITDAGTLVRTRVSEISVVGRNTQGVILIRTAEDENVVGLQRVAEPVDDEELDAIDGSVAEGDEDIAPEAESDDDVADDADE
T6 sequence (P37411 whole entry S83I, one chain of several): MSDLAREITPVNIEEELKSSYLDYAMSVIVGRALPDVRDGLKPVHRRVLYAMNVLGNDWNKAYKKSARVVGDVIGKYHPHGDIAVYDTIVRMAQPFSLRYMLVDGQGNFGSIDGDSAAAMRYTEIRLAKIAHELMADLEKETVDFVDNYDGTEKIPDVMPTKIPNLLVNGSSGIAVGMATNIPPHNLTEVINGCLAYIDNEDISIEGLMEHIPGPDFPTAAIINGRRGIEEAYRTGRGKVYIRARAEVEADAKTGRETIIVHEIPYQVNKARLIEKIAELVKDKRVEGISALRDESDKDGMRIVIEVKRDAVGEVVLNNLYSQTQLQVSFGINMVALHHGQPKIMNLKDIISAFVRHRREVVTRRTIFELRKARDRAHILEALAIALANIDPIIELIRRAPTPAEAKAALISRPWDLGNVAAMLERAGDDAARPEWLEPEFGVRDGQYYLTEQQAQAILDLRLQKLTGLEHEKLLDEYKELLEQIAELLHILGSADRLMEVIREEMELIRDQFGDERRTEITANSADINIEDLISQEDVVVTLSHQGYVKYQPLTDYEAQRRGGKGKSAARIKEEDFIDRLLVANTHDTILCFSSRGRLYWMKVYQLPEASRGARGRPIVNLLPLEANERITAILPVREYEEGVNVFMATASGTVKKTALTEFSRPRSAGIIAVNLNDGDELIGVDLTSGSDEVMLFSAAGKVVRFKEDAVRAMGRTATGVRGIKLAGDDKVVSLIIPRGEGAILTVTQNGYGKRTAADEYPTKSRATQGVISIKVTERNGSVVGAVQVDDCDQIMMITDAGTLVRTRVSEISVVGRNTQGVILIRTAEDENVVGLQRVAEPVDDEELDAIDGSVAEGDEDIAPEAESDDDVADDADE
T8 sequence (P37411 whole entry D87G, one chain of several): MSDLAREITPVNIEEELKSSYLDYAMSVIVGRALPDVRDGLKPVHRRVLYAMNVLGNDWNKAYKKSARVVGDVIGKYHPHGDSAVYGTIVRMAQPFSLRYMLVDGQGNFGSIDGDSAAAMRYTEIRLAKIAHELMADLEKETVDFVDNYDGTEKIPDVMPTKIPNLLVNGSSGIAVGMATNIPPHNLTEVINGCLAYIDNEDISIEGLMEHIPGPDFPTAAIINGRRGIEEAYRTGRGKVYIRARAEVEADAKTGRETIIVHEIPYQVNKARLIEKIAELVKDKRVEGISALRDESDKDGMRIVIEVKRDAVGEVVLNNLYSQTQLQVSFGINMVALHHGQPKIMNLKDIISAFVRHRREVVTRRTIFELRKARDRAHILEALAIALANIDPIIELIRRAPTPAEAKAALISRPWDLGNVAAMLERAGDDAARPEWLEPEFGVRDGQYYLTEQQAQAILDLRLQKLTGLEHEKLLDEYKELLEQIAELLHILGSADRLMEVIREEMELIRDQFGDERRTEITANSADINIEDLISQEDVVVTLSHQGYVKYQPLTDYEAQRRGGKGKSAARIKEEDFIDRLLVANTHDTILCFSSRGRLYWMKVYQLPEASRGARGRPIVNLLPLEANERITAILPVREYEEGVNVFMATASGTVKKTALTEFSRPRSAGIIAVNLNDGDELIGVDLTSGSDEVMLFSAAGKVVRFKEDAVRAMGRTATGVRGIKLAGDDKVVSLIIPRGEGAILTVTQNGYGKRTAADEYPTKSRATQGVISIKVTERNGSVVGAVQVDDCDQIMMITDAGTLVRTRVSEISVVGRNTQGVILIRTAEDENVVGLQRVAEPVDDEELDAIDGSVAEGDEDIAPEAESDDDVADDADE

For `Nc1nc(-n2cc(C(=O)O)c(=O)c3cc(F)c(N4CC(O)C4)c(Cl)c32)c(F)cc1F` [WQ-3034], the IC50 in experiment [1] is 45.4 nM; in [2] it was 2680 nM; in experiment [7], 68.1 nM; in experiment [8] it was 1020 nM; in experiment [9] it was 1910 nM; in experiment [10], 59 nM. The results for the IC50 in experiment [11] and in [12] were 54.5 nM and 495 nM, respectively. Moreover, the “IC50 against double-mutant DNA gyrase relative to WT” value in experiment [2] is on record as 59 fold. Also, in [3], the “CC25s, WT (concentration that induces 25% of maximum DNA cleavage)” value is 0.16 µg/mL. In addition, the MIC worked out at 0.016 µg/mL (≈ 0.0363 µM) in experiment [4] and 0.08 µg/mL (≈ 0.182 µM) in [6]. In addition, the “MIC ± SD, S. Enteritidis” value in experiment [4] is 0.16 µg/mL (≈ 0.363 µM). For the same compound, in experiment [5], the “CC25s, Ser83Ile (concentration that induces 25% of maximum DNA cleavage)” value was 0.58 µg/mL. In experiment [6], the “MIC ± SD, S. Typhimurium” value stood at 0.08 µg/mL (≈ 0.182 µM).

Turning to `Cc1c(N2CC(O)C2)c(F)cc2c(=O)c(C(=O)O)cn(-c3nc(N)c(F)cc3F)c12` [WQ-3154], the IC50 is 61.9 nM in experiment [1]; 4310 nM in [2]; 80.9 nM in [7]; 2080 nM in experiment [8]; 2750 nM in experiment [9]; 71.4 nM in experiment [10]. In addition, the IC50 in [11] was 83.3 nM; in experiment [12], 592 nM. The “IC50 against double-mutant DNA gyrase relative to WT” value in experiment [2] was determined as 70 fold. The MIC in experiment [4] and in [6] was 0.08 µg/mL (≈ 0.19 µM) in each case. In experiment [4], the “MIC ± SD, S. Enteritidis” value came to 0.08 µg/mL (≈ 0.19 µM). In addition, in experiment [6], the “MIC ± SD, S. Typhimurium” value is 0.08 µg/mL (≈ 0.19 µM).

For the compound `Cc1c(N2CC(NC(C)C)C2)c(F)cc2c(=O)c(C(=O)O)cn(-c3nc(N)c(F)cc3F)c12` [WQ-3810], the IC50 is 71.5 nM in [1]; 7910 nM in experiment [2]; 71.5 nM in experiment [7]; 1290 nM in experiment [8]; 2510 nM in experiment [9]; 113 nM in [10]. The IC50 in experiment [11] is 69.3 nM; in experiment [12], 897 nM. The “IC50 against double-mutant DNA gyrase relative to WT” value in experiment [2] is 110 fold. Besides, the MIC in [4] and in experiment [6] was 0.04 µg/mL (≈ 0.0867 µM) in each case. Also, in [4], the “MIC ± SD, S. Enteritidis” value came out at 0.04 µg/mL (≈ 0.0867 µM). Further, the “MIC ± SD, S. Typhimurium” value in [6] amounted to 0.04 µg/mL (≈ 0.0867 µM).
